3 compounds from patent US20140221206A1, “HERBICIDAL COMPOSITION COMPRISING POLYMERIC MICROPARTICLES CONTAINING A HERBICIDE” (SYNGENTA LIMITED, priority 2011, published 2014) can be followed below.

In this experiment the test system is AVEFA, LOLMU, ALOMY, SETVI. Description: Assay 3—Glasshouse assay for pinoxaden antagonism (grass species). The note with it: used with Axial (pinoxaden) + Adigor adjuvant.
Experimental: A suitable glasshouse assay/test, to determine whether or not the “first herbicide”, when in a salt-free form and when not contained within polymeric microparticles, antagonises the herbicidal activity of pinoxaden, is as follows.
The troughs are watered appropriately and are not supplied with additional nutrients throughout the course of the test. […] The pinoxaden is typically used in a commercial formulation applied with recommended tank-mix adjuvants.
Crop injury (e.g. to wheat) is recorded at both 7 and 14-16 days after application; weed efficacy is only recorded at 14-16 days after application. A visual, 0-100% assessment scale is used, where 0%=no visible effects and 100%=complete plant destruction.
For example, dicamba can be applied at ca. 240 g/ha (or alternatively at from 100 to 140, e.g. ca. 120, g/ha), measured as the free acid; MCPA and/or 2,4-D can be applied at ca. 500 g/ha, measured as the free acid.
Alternatively, application rates may be identified from journal, book and/or patent publications for the specific active ingredient under test.
Antagonism of pinoxaden may then be determined by the application of Colby's formula:
(Observed 1+Observed 2)−((Observed 1×Observed 2)/100),
Where observed values are smaller than the calculated expected value, antagonism is deemed to have occurred.
Consider `O=C(O)COc1ccc(Cl)cc1Cl` [2,4-D acid, (2,4-dichlorophenoxy)acetic acid], for which the “antagonism of pinoxaden grass-herbicidal activity (in words)” value (from here on “antagonism”) is “some reductions in pinoxaden herbicidal activity on the grassy weed species AVEFA, ALOMY, SETVI and LOLMU”.
With `Cc1cc(Cl)ccc1OCC(=O)O` [MCPA acid, (4-chloro-2-methylphenoxy)acetic acid], the “antagonism” value is “some reductions in pinoxaden herbicidal activity on the grassy weed species AVEFA, ALOMY and LOLMU”.
Take `COc1c(Cl)ccc(Cl)c1C(=O)O` [dicamba acid, 3,6-dichloro-2-methoxybenzoic acid]: the “antagonism” value was “some reductions in pinoxaden herbicidal activity on the grassy weed species AVEFA, ALOMY and LOLMU”.
